This is an account of results in patent US20120053053A1, “PYRIMIDINE DERIVATIVES AND THEIR USE AS HERBICIDES” (SYNGENTA CROP PROTECTION, LLC, priority 2009, published 2012).

One may read the pest or weed control as how far the test organism was held down. Read a high pest or weed control as strong suppression.

Holding throughout (assay type): in vivo
Assay [1] relates to Echinochloa crus-galli (ECHCG). Description: Post-emergence biological efficacy (percentage damage). Conditions: Echinochloa crus-galli, 312 h, dose 1,000 g/ha, evaluated after 13 days, 100=total damage, 0=no damage. The protocol:
(§1) Seeds of Alopecurus myosuroides (ALOMY), Setaria faberi (SETFA), Echinochloa crus-galli (ECHCG), Solanum nigrum (SOLNI), Amaranthus retoflexus (AMARE) and Ipomea hederaceae (IPOHE) were sown in standard soil in pots. After cultivation for 8 days under controlled conditions in a glasshouse (at 24/16° C., day/night; 14 hours light; 65% humidity), the plants were sprayed with an aqueous spray solution derived from the formulation of the technical active ingredient in acetone/water (50:50) solution containing 0.5% Tween 20 (polyoxyethylene sorbitan monolaurate, CAS RN 9005-64-5) to give a final dose of 250 or 1000 g/ha of test compound. The test plants were then grown on under controlled conditions in a glasshouse (at 24/16° C., day/night; 14 hours light; 65% humidity) and watered twice daily. After 13 days the test was evaluated (100=total damage to plant; 0=no damage to plant).

In assay [2] the test system is Amaranthus retoflexus (AMARE). Described as above. Conditions: Amaranthus retroflexus, 312 h, dose 1,000 g/ha, evaluated after 13 days, 100=total damage, 0=no damage. The protocol: as §1
In assay [3] the test system is Solanum nigrum (SOLNI). The description is as above. The conditions noted are these: Solanum nigrum, 312 h, dose 1,000 g/ha, evaluated after 13 days, 100=total damage, 0=no damage. The procedure: as §1
Assay [4] relates to Alopecurus myosuroides (ALOMY). Described as above. Conditions: Alopecurus myosuroides, 312 h, dose 1,000 g/ha, evaluated after 13 days, 100=total damage, 0=no damage. The procedure: as §1
Assay [5] has as its system Setaria faberi (SETFA). Described as above. Conditions: Setaria faberi, 312 h, dose 1,000 g/ha, evaluated after 13 days, 100=total damage, 0=no damage. The protocol:
as §1

Assay [6] deals with Ipomea hederaceae (IPOHE). The description is as above. The conditions noted are these: Ipomoea hederacea, 312 h, dose 1,000 g/ha, evaluated after 13 days, 100=total damage, 0=no damage. The procedure: as §1
Assay [7] concerns Echinochloa crus-galli (ECHCG). In words: Pre-emergence biological efficacy (percentage damage). Conditions: Echinochloa crus-galli, 312 h, dose 1,000 g/ha, evaluated after 13 days, 100=total damage, 0=no damage. The procedure:
(§2) Seeds of Alopecurus myosuroides (ALOMY), Setaria faberi (SETFA), Echinochloa crus-galli (ECHCG), Solanum nigrum (SOLNI), Amaranthus retoflexus (AMARE) and Ipomea hederaceae (IPOHE) were sown in standard soil in pots. After cultivation for one day under controlled conditions in a glasshouse (at 24/16° C., day/night; 14 hours light; 65% humidity), the plants were sprayed with an aqueous spray solution derived from the formulation of the technical active ingredient in acetone/water (50:50) solution containing 0.5% Tween 20 (polyoxyethylene sorbitan monolaurate, CAS RN 9005-64-5) to give a final dose of 250 or 1000 g/ha of test compound. The test plants were then grown under controlled conditions in the glasshouse (at 24/16° C., day/night; 14 hours light; 65% humidity) and watered twice daily. After 13 days the test was evaluated (100=total damage to plant; 0=no damage to plant).

Assay [8] has as its system Amaranthus retoflexus (AMARE). The assay is described as above. Conditions: Amaranthus retroflexus, 312 h, dose 1,000 g/ha, evaluated after 13 days, 100=total damage, 0=no damage. The procedure:
as §2

Assay [9] relates to Solanum nigrum (SOLNI). The description is as above. Conditions: Solanum nigrum, 312 h, dose 1,000 g/ha, evaluated after 13 days, 100=total damage, 0=no damage. The protocol: as §2
Assay [10] deals with Alopecurus myosuroides (ALOMY). The assay is described as above. The conditions noted are these: Alopecurus myosuroides, 312 h, dose 1,000 g/ha, evaluated after 13 days, 100=total damage, 0=no damage. The procedure: as §2
Assay [11] relates to Setaria faberi (SETFA). Described as above. Conditions: Setaria faberi, 312 h, dose 1,000 g/ha, evaluated after 13 days, 100=total damage, 0=no damage. The protocol: as §2
In assay [12] the test system is Ipomea hederaceae (IPOHE). The description is as above. Conditions: Ipomoea hederacea, 312 h, dose 1,000 g/ha, evaluated after 13 days, 100=total damage, 0=no damage. The procedure: as §2

`COC(=O)COc1nc(C2CC2)nc(Cl)c1C` [Compound 2-376, 4-chloro-2-cyclopropyl-6-methoxycarbonylmethoxy-5-methylpyrimidine]: the pest or weed control at 1000 g/ha came to 0% in assay [1]; 20% in assay [2]; 30% with Solanum nigrum (SOLNI) [3]; 0% in assay [4]; 20% in the assay on Setaria faberi (SETFA) [5]; 50% in assay [6]. The pest or weed control at 1000 g/ha was 0% in assay [7]; 30% in [8]; 0% in the assay with Solanum nigrum (SOLNI) [9]; 0% in assay [10]; 0% with Setaria faberi (SETFA) [11]; 0% in [12].
With `Cc1c(OCC(=O)OC(C)(C)C)nc(C2CC2)nc1OCC(=O)OC(C)(C)C` [Compound 2-389, 4,6-bis(t-butoxy-carbonyl-methoxy)-2-cyclo-propyl-5-methyl-pyrimidine], the pest or weed control at 1000 g/ha turned out to be 0% in assay [1]; 0% in [2]; 30% in the assay on Solanum nigrum (SOLNI) [3]; 0% in assay [4]; 0% in the assay with Setaria faberi (SETFA) [5]; 20% in assay [6]. Moreover, the pest or weed control at 1000 g/ha in assay [7] stood at 0%; in assay [8], 20%; in the assay with Solanum nigrum (SOLNI) [9], 0%; in [10], 0%; in the assay with Setaria faberi (SETFA) [11], 0%; in assay [12], 0%.
In the case of `C=Cc1c(OC)nc(C2CC2)nc1C(=O)OC` [Compound 2-398, 2-Cyclopropyl-5-ethenyl-4-methoxy-6-methoxy-carbonyl-pyrimidine], the pest or weed control at 1000 g/ha in [1] turned out to be 0%; in assay [2], 90%; in the assay on Solanum nigrum (SOLNI) [3], 80%; in assay [4], 0%; in the assay with Setaria faberi (SETFA) [5] it was 0%; in assay [6], 90%. For the same compound, the pest or weed control at 1000 g/ha in [7] is 0%; in assay [8], 90%; in the assay with Solanum nigrum (SOLNI) [9], 90%; in assay [10], 0%; in the assay with Setaria faberi (SETFA) [11], 0%; in [12], 100%.
Take `C=Cc1c(N=[N+]=[N-])nc(C2CC2)nc1C(=O)OC` [Compound 2-399, 4-azido-2-cyclopropyl-5-ethenyl-6-methoxycarbonyl-pyrimidine]: the pest or weed control at 1000 g/ha in [1] turned out to be 0%; in [2] it was 20%; in the assay on Solanum nigrum (SOLNI) [3], 20%; in assay [4] it was 0%; in the assay on Setaria faberi (SETFA) [5], 0%; in assay [6], 20%. In addition, the pest or weed control at 1000 g/ha (in [7]; in assay [8]; with Solanum nigrum (SOLNI) [9]; in [10]; in the assay with Setaria faberi (SETFA) [11]; in assay [12]) was 0% throughout.
For the compound `C=Cc1c(SC)nc(C2CC2)nc1C(=O)OC` [Compound 2-400, 2-cyclopropyl-5-ethenyl-6-methoxycarbonyl-4-methylthio-pyrimidine], the pest or weed control at 1000 g/ha in assay [1] stood at 0%; in assay [2], 80%; in the assay with Solanum nigrum (SOLNI) [3] it was 100%; in [4] it was 0%; in the assay with Setaria faberi (SETFA) [5], 0%; in assay [6] it was 60%. In addition, the pest or weed control at 1000 g/ha was found to be 0% in assay [7]; 90% in assay [8]; 100% in the assay with Solanum nigrum (SOLNI) [9]; 0% in assay [10]; 0% in the assay on Setaria faberi (SETFA) [11]; 60% in assay [12].
Regarding `C=Cc1c(C(=O)OC)nc(C2CC2)nc1S(C)(=O)=O` [Compound 2-402, 2-cyclopropyl-5-ethenyl-6-methoxycarbonyl-4-methylsulphonyl-pyrimidine], the pest or weed control at 1000 g/ha in [1] was found to be 0%; in assay [2] it was 0%; in the assay with Solanum nigrum (SOLNI) [3], 20%; in [4], 0%; with Setaria faberi (SETFA) [5] it was 0%; in assay [6], 50%. Further, the pest or weed control at 1000 g/ha (in assay [7]; in assay [8]; in the assay on Solanum nigrum (SOLNI) [9]; in [10]; with Setaria faberi (SETFA) [11]; in assay [12]) was 0% throughout.
For `COC(=O)c1nc(-c2ccc(Cl)cc2)nc(N)c1C` [Compound 5-41], the pest or weed control at 1000 g/ha in assay [1] was 20%; in assay [2], 100%; in the assay with Solanum nigrum (SOLNI) [3] it was 70%; in [4], 30%; in the assay on Setaria faberi (SETFA) [5], 30%; in assay [6], 40%. Besides, the pest or weed control at 1000 g/ha in assay [7] was 30%; in assay [8] it was 100%; with Solanum nigrum (SOLNI) [9], 30%; in assay [10] it was 20%; with Setaria faberi (SETFA) [11] it was 30%; in [12] it was 10%.
As for `C=Cc1c(N)nc(-c2ccc(Cl)cc2)nc1C(=O)OC` [Compound 5-61, 4-Amino-2-(4-chlorophenyl)-5-ethenyl-6-methoxycarbonyl-pyrimidine], the pest or weed control at 1000 g/ha turned out to be 90% in [1]; 100% in assay [2]; 100% in the assay with Solanum nigrum (SOLNI) [3]; 80% in assay [4]; 100% in the assay with Setaria faberi (SETFA) [5]; 100% in [6]. For the same compound, the pest or weed control at 1000 g/ha in assay [7] was determined as 60%; in assay [8] it was 100%; in the assay on Solanum nigrum (SOLNI) [9] it was 90%; in assay [10], 60%; with Setaria faberi (SETFA) [11] it was 60%; in assay [12], 90%.
In the case of `C=Cc1c(N)nc(-c2ccc(Br)cc2)nc1C(=O)OC` [Compound 6-61, 4-Amino-2-(4-bromophenyl)-5-ethenyl-6-methoxycarbonyl-pyrimidine], the pest or weed control at 1000 g/ha was 50% in [1]; 100% in assay [2]; 90% in the assay on Solanum nigrum (SOLNI) [3]; 60% in [4]; 30% with Setaria faberi (SETFA) [5]; 70% in [6]. In addition, the pest or weed control at 1000 g/ha in assay [7] amounted to 50%; in [8] it was 100%; in the assay with Solanum nigrum (SOLNI) [9] it was 90%; in assay [10], 70%; in the assay on Setaria faberi (SETFA) [11], 30%; in [12], 80%.
In the case of `C=Cc1c(N)nc(-c2ccc(Cl)c(Cl)c2)nc1C(=O)OC` [Compound 9-61, 4-Amino-2-(3,4-dichlorophenyl)-5-ethenyl-6-methoxycarbonyl-pyrimidine], the pest or weed control at 1000 g/ha amounted to 20% in assay [1]; 100% in assay [2]; 90% in the assay with Solanum nigrum (SOLNI) [3]; 20% in assay [4]; 0% in the assay on Setaria faberi (SETFA) [5]; 70% in assay [6]. Also, the pest or weed control at 1000 g/ha is 30% in assay [7]; 90% in [8]; 70% in the assay on Solanum nigrum (SOLNI) [9]; 0% in assay [10]; 0% in the assay with Setaria faberi (SETFA) [11]; 10% in assay [12].
